Experimental data: patent US20120132797A1, “MEANS AND METHODS FOR DIAGNOSING THYROID DISORDERS” (BASF SE, priority 2009, published 2012)
Values belong to the compound of their own block, whether it stands above or below them.

Test system: Wistar (Crl:WI(Han)) rats
Experiment: Mass spectrometry-based plasma metabolite profiling of rats treated with known inducers of thyroid function impairment
Assay type: in vivo, rat
Settings: female rats, ratio of group medians vs controls, Table 3
Description: At the beginning of the study the animals were 10-11 weeks old. Each dose group in the studies consisted of five rats per sex, and was compared with controls (10 rats per sex). […] The dose levels were chosen to show the typical overt (high dose) and slight (low dose) toxicological symptoms of the substances as described in the literature or in BASF internal study reports.
Blood samples were withdrawn from the retro-orbital sinus in all rats under isoflurane anesthesia on study days 7, 14 and 28 after a fasting period of 16-20 hours.
For mass spectrometry-based metabolite profiling analysis, plasma samples were extracted by a proprietary method which delivers a polar and a non-polar fraction. For GC-MS analysis, the non-polar fraction was treated with methanol under acidic conditions to yield the fatty acid methyl esters. Both fractions were further derivatised with Omethyl-hydroxyamine hydrochloride and pyridine to convert oxo groups to Omethyloximes and subsequently with a silylating agent before analysis.
In LC-MS/MS analysis, both fractions were reconstituted in appropriate solvent mixtures. HPLC was performed by gradient elution on reversed phase separation columns. For mass spectrometric detection metanomics proprietary technology was applied, which allows target and high sensitivity MRM (Multiple Reaction Monitoring) profiling in parallel to a full screen analysis. […] Moreover, several hundred additional analytes giving a fingerprint of the sample were included in the methods.
Following comprehensive analytical validation steps, the data for each analyte were normalized against data from pool samples. These samples were run in parallel through the whole process to account for process variability.
The sex- and day-stratified heteroscedastic t-test (“Welch test”) was applied to compare treated groups with respective controls. p-Values and ratios of corresponding group medians were collected as metabolic profiles and fed into a database.

Arachidonic acid (C20:cis[58,11,14]4) (fh7 (study day 7)): 1.04 | Behenic acid (C22:0) (fh7 (study day 7)): 1.34 | Cholesterol (fh7 (study day 7)): 1.14 | Cysteine (fh7 (study day 7)): 0.70 | Docosahexaenoic acid (C22:cis[4,7,10,13,16,19]6) (fh7 (study day 7)): 1.37 | Dodecanol (fh7 (study day 7)): 1.06 | Eicosanoic acid (C20:0) (fh7 (study day 7)): 1.06 | Glycerol phosphate (fh7 (study day 7)): 1.21 | Heptadecanoic acid (C17:0) (fh7 (study day 7)): 1.14 | Linoleic acid (C18:cis[9,12]2) (fh7 (study day 7)): 1.19 | Nervonic acid C24:(cis[15]1) (fh7 (study day 7)): 1.11 | Palmitic acid (C16:0) (fh7 (study day 7)): 1.21 | Sphingomyelin (d18:1, C16:0) (fh7 (study day 7)): 1.34 | Stearic acid (C18:0) (fh7 (study day 7)): 0.99 | Threonic acid (fh7 (study day 7)): 1.45 | dihomo-gamma-Linolenic acid (C20:cis[8,11,14]3) (fh7 (study day 7)): 0.83 | erythro-Sphingosine (fh7 (study day 7)): 1.38 | gamma-Linolenic acid (C18:cis[6,9,12]3) (fh7 (study day 7)): 0.91 | myo-Inositol-2-phosphate (fh7 (study day 7)): 1.61 | threo-Sphingosine (fh7 (study day 7)): 1.28 | Arachidonic acid (C20:cis[58,11,14]4) (fh14 (study day 14)): 1.20 | Behenic acid (C22:0) (fh14 (study day 14)): 1.25 | Cholesterol (fh14 (study day 14)): 1.41 | Cysteine (fh14 (study day 14)): 0.63 | Docosahexaenoic acid (C22:cis[4,7,10,13,16,19]6) (fh14 (study day 14)): 1.42 | Dodecanol (fh14 (study day 14)): 1.11 | Eicosanoic acid (C20:0) (fh14 (study day 14)): 1.34 | Glycerol phosphate (fh14 (study day 14)): 1.26 | Heptadecanoic acid (C17:0) (fh14 (study day 14)): 1.27 | Linoleic acid (C18:cis[9,12]2) (fh14 (study day 14)): 1.27 | Nervonic acid C24:(cis[15]1) (fh14 (study day 14)): 1.52 | Palmitic acid (C16:0) (fh14 (study day 14)): 1.30 | Sphingomyelin (d18:1, C16:0) (fh14 (study day 14)): 1.26 | Stearic acid (C18:0) (fh14 (study day 14)): 1.02 | Threonic acid (fh14 (study day 14)): 1.26 | dihomo-gamma-Linolenic acid (C20:cis[8,11,14]3) (fh14 (study day 14)): 1.53 | erythro-Sphingosine (fh14 (study day 14)): 1.61 | gamma-Linolenic acid (C18:cis[6,9,12]3) (fh14 (study day 14)): 1.67 | myo-Inositol-2-phosphate (fh14 (study day 14)): 1.60 | threo-Sphingosine (fh14 (study day 14)): 1.63 | Arachidonic acid (C20:cis[58,11,14]4) (fh28 (study day 28)): 1.36 | Behenic acid (C22:0) (fh28 (study day 28)): 1.34 | Cholesterol (fh28 (study day 28)): 1.55 | Cysteine (fh28 (study day 28)): 0.76 | Docosahexaenoic acid (C22:cis[4,7,10,13,16,19]6) (fh28 (study day 28)): 1.27 | Dodecanol (fh28 (study day 28)): 1.05 | Eicosanoic acid (C20:0) (fh28 (study day 28)): 1.15 | Glycerol phosphate (fh28 (study day 28)): 1.26 | Heptadecanoic acid (C17:0) (fh28 (study day 28)): 1.38 | Linoleic acid (C18:cis[9,12]2) (fh28 (study day 28)): 1.21 | Nervonic acid C24:(cis[15]1) (fh28 (study day 28)): 1.74 | Palmitic acid (C16:0) (fh28 (study day 28)): 1.44 | Sphingomyelin (d18:1, C16:0) (fh28 (study day 28)): 1.27 | Stearic acid (C18:0) (fh28 (study day 28)): 1.17 | Threonic acid (fh28 (study day 28)): 0.98 | dihomo-gamma-Linolenic acid (C20:cis[8,11,14]3) (fh28 (study day 28)): 1.26 | erythro-Sphingosine (fh28 (study day 28)): 1.69 | gamma-Linolenic acid (C18:cis[6,9,12]3) (fh28 (study day 28)): 2.30 | myo-Inositol-2-phosphate (fh28 (study day 28)): 1.70 | threo-Sphingosine (fh28 (study day 28)): 1.66
SMILES: Cc1ncc[nH]1 [2-Methylimidazole]

SMILES: Cc1c[nH]nc1C.O=P(O)(O)O [3,4-Dimethylpyrazolphosphat]
Arachidonic acid (C20:cis[58,11,14]4) (fh7 (study day 7)): 1.36 | Behenic acid (C22:0) (fh7 (study day 7)): 1.31 | Cholesterol (fh7 (study day 7)): 1.24 | Cysteine (fh7 (study day 7)): 0.78 | Docosahexaenoic acid (C22:cis[4,7,10,13,16,19]6) (fh7 (study day 7)): 2.15 | Dodecanol (fh7 (study day 7)): 1.06 | Eicosanoic acid (C20:0) (fh7 (study day 7)): 1.14 | Glycerol phosphate (fh7 (study day 7)): 1.29 | Heptadecanoic acid (C17:0) (fh7 (study day 7)): 1.30 | Linoleic acid (C18:cis[9,12]2) (fh7 (study day 7)): 1.29 | Nervonic acid C24:(cis[15]1) (fh7 (study day 7)): 1.60 | Palmitic acid (C16:0) (fh7 (study day 7)): 1.34 | Sphingomyelin (d18:1, C16:0) (fh7 (study day 7)): 1.28 | Stearic acid (C18:0) (fh7 (study day 7)): 1.30 | Threonic acid (fh7 (study day 7)): 1.51 | dihomo-gamma-Linolenic acid (C20:cis[8,11,14]3) (fh7 (study day 7)): 1.36 | erythro-Sphingosine (fh7 (study day 7)): 1.40 | gamma-Linolenic acid (C18:cis[6,9,12]3) (fh7 (study day 7)): 1.17 | myo-Inositol-2-phosphate (fh7 (study day 7)): 1.26 | threo-Sphingosine (fh7 (study day 7)): 1.27 | Arachidonic acid (C20:cis[58,11,14]4) (fh14 (study day 14)): 1.75 | Behenic acid (C22:0) (fh14 (study day 14)): 1.82 | Cholesterol (fh14 (study day 14)): 1.73 | Cysteine (fh14 (study day 14)): 1.29 | Docosahexaenoic acid (C22:cis[4,7,10,13,16,19]6) (fh14 (study day 14)): 2.19 | Dodecanol (fh14 (study day 14)): 1.17 | Eicosanoic acid (C20:0) (fh14 (study day 14)): 1.61 | Glycerol phosphate (fh14 (study day 14)): 1.69 | Heptadecanoic acid (C17:0) (fh14 (study day 14)): 1.34 | Linoleic acid (C18:cis[9,12]2) (fh14 (study day 14)): 1.29 | Nervonic acid C24:(cis[15]1) (fh14 (study day 14)): 1.60 | Palmitic acid (C16:0) (fh14 (study day 14)): 1.34 | Sphingomyelin (d18:1, C16:0) (fh14 (study day 14)): 1.35 | Stearic acid (C18:0) (fh14 (study day 14)): 1.71 | Threonic acid (fh14 (study day 14)): 1.17 | dihomo-gamma-Linolenic acid (C20:cis[8,11,14]3) (fh14 (study day 14)): 1.80 | erythro-Sphingosine (fh14 (study day 14)): 1.90 | gamma-Linolenic acid (C18:cis[6,9,12]3) (fh14 (study day 14)): 1.87 | myo-Inositol-2-phosphate (fh14 (study day 14)): 1.78 | threo-Sphingosine (fh14 (study day 14)): 1.72 | Arachidonic acid (C20:cis[58,11,14]4) (fh28 (study day 28)): 1.67 | Behenic acid (C22:0) (fh28 (study day 28)): 1.43 | Cholesterol (fh28 (study day 28)): 1.69 | Cysteine (fh28 (study day 28)): 1.00 | Docosahexaenoic acid (C22:cis[4,7,10,13,16,19]6) (fh28 (study day 28)): 2.25 | Dodecanol (fh28 (study day 28)): 1.26 | Eicosanoic acid (C20:0) (fh28 (study day 28)): 1.38 | Glycerol phosphate (fh28 (study day 28)): 1.55 | Heptadecanoic acid (C17:0) (fh28 (study day 28)): 1.39 | Linoleic acid (C18:cis[9,12]2) (fh28 (study day 28)): 1.44 | Nervonic acid C24:(cis[15]1) (fh28 (study day 28)): 1.78 | Palmitic acid (C16:0) (fh28 (study day 28)): 1.55 | Sphingomyelin (d18:1, C16:0) (fh28 (study day 28)): 1.58 | Stearic acid (C18:0) (fh28 (study day 28)): 1.62 | Threonic acid (fh28 (study day 28)): 1.36 | dihomo-gamma-Linolenic acid (C20:cis[8,11,14]3) (fh28 (study day 28)): 1.86 | erythro-Sphingosine (fh28 (study day 28)): 1.54 | gamma-Linolenic acid (C18:cis[6,9,12]3) (fh28 (study day 28)): 1.96 | myo-Inositol-2-phosphate (fh28 (study day 28)): 1.91 | threo-Sphingosine (fh28 (study day 28)): 1.58
